According to patent US10669272B2, “Substituted naphthyridinone compounds useful as T cell activators” (BRISTOL-MYERS SQUIBB COMPANY, priority 2018, dated 2020):
Like-named read-outs stand apart in the source and are kept apart here.

How the values were obtained:
human DGKα = biological target: T1, human DGKα (Homo sapiens, UniProt P23743); assay: DGKα LIPGLO assay (extruded liposome substrate), in vitro DGK inhibition; assay type: biochemical; conditions: DGKα liposome (LIPGLO) assay; read-out: DGKa LIPGLO IC50
T1 construct: TVMV protease cleavage site (C); Hexa-His (C); made in house; host or cells: Sf9 insect cells (baculovirus, Bac-to-Bac)
T1 sequence (P23743 with tags, fused parts or gaps): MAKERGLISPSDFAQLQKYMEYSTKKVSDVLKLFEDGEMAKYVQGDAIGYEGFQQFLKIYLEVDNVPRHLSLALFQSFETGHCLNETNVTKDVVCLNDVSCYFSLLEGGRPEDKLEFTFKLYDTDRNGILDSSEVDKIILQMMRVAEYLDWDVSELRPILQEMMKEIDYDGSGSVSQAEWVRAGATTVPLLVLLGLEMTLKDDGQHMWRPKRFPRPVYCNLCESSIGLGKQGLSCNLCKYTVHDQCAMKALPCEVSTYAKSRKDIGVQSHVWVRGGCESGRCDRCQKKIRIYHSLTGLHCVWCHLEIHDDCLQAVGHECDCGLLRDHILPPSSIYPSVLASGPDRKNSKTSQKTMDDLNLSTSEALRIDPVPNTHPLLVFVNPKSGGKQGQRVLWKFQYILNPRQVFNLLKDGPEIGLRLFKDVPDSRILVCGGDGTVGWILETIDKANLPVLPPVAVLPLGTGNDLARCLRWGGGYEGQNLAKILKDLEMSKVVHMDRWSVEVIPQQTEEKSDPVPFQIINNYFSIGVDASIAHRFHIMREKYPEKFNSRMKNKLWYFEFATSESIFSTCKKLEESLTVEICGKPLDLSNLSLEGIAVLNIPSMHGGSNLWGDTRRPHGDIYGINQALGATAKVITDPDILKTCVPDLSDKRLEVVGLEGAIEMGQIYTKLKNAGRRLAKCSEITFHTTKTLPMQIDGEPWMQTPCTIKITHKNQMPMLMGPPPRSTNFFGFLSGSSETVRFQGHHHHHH

human DGKζ = biological target: T2, human DGKζ (Homo sapiens, UniProt Q13574); assay: DGKζ LIPGLO assay (extruded liposome substrate), in vitro DGK inhibition; assay type: biochemical; conditions: DGKζ liposome (LIPGLO) assay; read-out: DGKz LIPGLO IC50
T2 construct: TVMV protease cleavage site (C); Hexa-His (C); made in house; host or cells: Sf9 insect cells (baculovirus, Bac-to-Bac)
T2 sequence (Q13574 with tags, fused parts or gaps isoform Q13574-4): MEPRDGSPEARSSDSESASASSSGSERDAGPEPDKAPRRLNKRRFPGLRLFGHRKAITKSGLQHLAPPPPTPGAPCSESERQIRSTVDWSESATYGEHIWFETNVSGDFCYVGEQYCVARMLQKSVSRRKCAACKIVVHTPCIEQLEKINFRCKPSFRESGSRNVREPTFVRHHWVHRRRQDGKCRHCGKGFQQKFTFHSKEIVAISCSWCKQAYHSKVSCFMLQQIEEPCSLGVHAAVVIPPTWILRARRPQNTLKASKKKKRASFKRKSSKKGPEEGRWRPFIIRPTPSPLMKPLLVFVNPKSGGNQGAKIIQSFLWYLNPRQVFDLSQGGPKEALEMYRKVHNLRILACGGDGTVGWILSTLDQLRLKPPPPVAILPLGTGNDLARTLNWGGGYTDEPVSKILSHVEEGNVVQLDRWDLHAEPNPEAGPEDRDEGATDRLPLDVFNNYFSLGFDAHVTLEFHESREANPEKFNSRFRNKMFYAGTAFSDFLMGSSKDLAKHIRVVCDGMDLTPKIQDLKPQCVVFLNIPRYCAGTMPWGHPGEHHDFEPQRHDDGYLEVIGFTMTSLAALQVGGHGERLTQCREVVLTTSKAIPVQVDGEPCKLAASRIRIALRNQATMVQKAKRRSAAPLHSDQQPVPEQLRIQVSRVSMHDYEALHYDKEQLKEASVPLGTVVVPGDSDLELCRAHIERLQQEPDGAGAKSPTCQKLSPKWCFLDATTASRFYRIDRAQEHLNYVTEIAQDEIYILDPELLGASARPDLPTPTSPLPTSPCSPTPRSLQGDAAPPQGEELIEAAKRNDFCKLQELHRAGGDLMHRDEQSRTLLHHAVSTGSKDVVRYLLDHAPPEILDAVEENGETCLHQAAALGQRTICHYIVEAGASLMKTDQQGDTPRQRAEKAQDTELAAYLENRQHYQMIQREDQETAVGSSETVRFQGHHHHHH

Human venous whole blood = assay: Human whole blood IFN-γ assay; assay type: cell-based; conditions: human whole blood, anti-CD3 plus anti-CD28, 24 hours, 3 μM reference compound = 100% activation, read-out: INFg Whole Blood Normalized Agonist EC50;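 note: blood from healthy donors exposed to compound for 1 h before stimulation with anti-CD3 and anti-CD28 at 1 µg/mL each, IFN-γ quantified in supernatant by AlphaLISA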

Row | Structure (SMILES) | IC50 (human DGKα) [µM] | IC50 (human DGKζ) [µM] | EC50 (Human venous whole blood) [µM] | EC50 (Human venous whole blood; Homo sapiens, 24 h) [µM]
1 | C[C@@H]1CN(c2c(C#N)c(=O)n(C)c3ccc(C#N)nc23)CCN1C(c1ccc(F)cc1)c1ccccc1F (stereo partly drawn) [Example 883] | 1.5 | 0.84 | 0.83 | –
2 | CCc1ccc(C(c2ccc(F)cc2)N2CCN(c3c(C#N)c(=O)n(C)c4ccc(C#N)nc34)C[C@H]2C)cc1 (stereo partly drawn) [Example 884] | 4.6 | 2.4 | – | 2.2
3 | CCc1ccc(C(c2ccc(F)cc2)N2CCN(c3c(C#N)c(=O)n(C)c4ccc(C#N)nc34)C[C@H]2C)cc1 (stereo partly drawn) [Example 885] | 3 | 1.2 | 2.4 | –
4 | Cc1cccc(C(c2ccc(F)cc2)N2CCN(c3c(C#N)c(=O)n(C)c4ccc(C#N)nc34)C[C@H]2C)c1 (stereo partly drawn) [Example 917] | 6.1 | 0.7 | 0.85 | –
5 | C[C@@H]1CN(c2c(C#N)c(=O)n(C)c3ccc(C#N)nc23)CCN1C(c1cccc(Cl)c1)c1ccc(F)cn1 (stereo partly drawn) [Example 926] | 2.5 | 4 | – | 1.2
6 | Cc1cccc(C(C)N2CCN(c3c(C#N)c(=O)n(C)c4ccc(C#N)nc34)C[C@H]2C)n1 (stereo partly drawn) [Example 964] | 1.9 | 32 | – | 13
7 | Cc1cccc(C(C)N2CCN(c3c(C#N)c(=O)n(C)c4ccc(C#N)nc34)C[C@H]2C)n1 (stereo partly drawn) [Example 967] | 2.8 | 51 | 18 | –
8 | COC(=O)c1ccc(C(C)N2CCN(c3c(C#N)c(=O)n(C)c4ccc(C#N)nc34)C[C@H]2C)cc1 (stereo partly drawn) [Example 981] | 2.1 | 28 | – | 13
9 | C[C@@H]1CN(c2c(C#N)c(=O)n(C)c3ccc(C#N)nc23)CCN1Cc1ccc(F)c(F)c1 [Example 987] | 2.9 | 1.8 | – | 7.3
10 | Cc1cccc(CN2CCN(c3c(C#N)c(=O)n(C)c4ccc(C#N)nc34)C[C@H]2C)n1 [Example 988] | 2.8 | 5.3 | – | 20
11 | C[C@@H]1CN(c2c(C#N)c(=O)n(C)c3ccc(C#N)nc23)CCN1Cc1cccc(C#N)n1 [Example 989] | 5.2 | 32 | – | 20
12 | C[C@@H]1CN(c2c(C#N)c(=O)n(C)c3ccc(C#N)nc23)CCN1Cc1ccc2ccccc2n1 [Example 992] | 1.3 | 3.2 | – | 5.8
13 | C[C@@H]1CN(c2c(C#N)c(=O)n(C)c3ccc(C#N)nc23)CCN1Cc1ccc(F)cc1Cl [Example 993] | 1.3 | 3.9 | – | 3.8
14 | C[C@@H]1CN(c2c(C#N)c(=O)n(C)c3ccc(C#N)nc23)CCN1Cc1ccc(-c2ccccc2)cc1 [Example 994] | 6.4 | 110 | – | 20
15 | Cc1cc(CN2CCN(c3c(C#N)c(=O)n(C)c4ccc(C#N)nc34)C[C@H]2C)ccc1F [Example 995] | 3.2 | 5.6 | – | 2.5
16 | C[C@@H]1CN(c2c(C#N)c(=O)n(C)c3ccc(C#N)nc23)CCN1Cc1ccc(Cl)c(Cl)c1 [Example 996] | 4.1 | 5.8 | – | 20
17 | Cc1cc(C)cc(CN2CCN(c3c(C#N)c(=O)n(C)c4ccc(C#N)nc34)C[C@H]2C)c1 [Example 1000] | 2.7 | 6.2 | – | 4
18 | Cc1ccc(F)cc1CN1CCN(c2c(C#N)c(=O)n(C)c3ccc(C#N)nc23)C[C@H]1C [Example 1001] | 1.5 | 4.6 | – | 4.7
19 | Cc1ccc(CN2CCN(c3c(C#N)c(=O)n(C)c4ccc(C#N)nc34)C[C@H]2C)cc1F [Example 1002] | 2.7 | 4.7 | – | 5.5
20 | C[C@@H]1CN(c2c(C#N)c(=O)n(C)c3ccc(C#N)nc23)CCN1Cc1cccc(C(F)(F)F)c1 [Example 1003] | 2.8 | 3.9 | – | 20
21 | C[C@@H]1CN(c2c(C#N)c(=O)n(C)c3ccc(C#N)nc23)CCN1Cc1cccc(-c2ccccc2)c1 [Example 1004] | 3.9 | 11 | – | 3.5
22 | Cc1ccc(F)c(CN2CCN(c3c(C#N)c(=O)n(C)c4ccc(C#N)nc34)C[C@H]2C)c1 [Example 1006] | 2.6 | 7 | – | 11
23 | C[C@@H]1CN(c2c(C#N)c(=O)n(C)c3ccc(C#N)nc23)CCN1Cc1ccccc1C#N [Example 1009] | 1.8 | 6.7 | – | 20
24 | Cc1c(F)cccc1CN1CCN(c2c(C#N)c(=O)n(C)c3ccc(C#N)nc23)C[C@H]1C [Example 1010] | 1.8 | 1 | – | 2

The next molecules have a lower IC50 (human DGKα) than those just listed; values first:

Row | IC50 (human DGKα) [µM] | IC50 (human DGKζ) [µM] | Structure (SMILES) | EC50 (Human venous whole blood) [µM] | EC50 (Human venous whole blood; Homo sapiens, 24 h) [µM]
25 | 1.2 | 8.3 | C[C@@H]1CN(c2c(C#N)c(=O)n(C)c3ccc(C#N)nc23)CCN1Cc1ccc(Cl)cc1 [Example 1011] | – | 20
26 | 1.1 | 3.3 | C[C@@H]1CN(c2c(C#N)c(=O)n(C)c3ccc(C#N)nc23)CCN1Cc1ccccc1Cl [Example 997] | – | 20
27 | 0.87 | 7.7 | C[C@@H]1CN(c2c(C#N)c(=O)n(C)c3ccc(C#N)nc23)CCN1Cc1cccc(F)c1 [Example 1005] | – | 20
28 | 0.78 | 7.5 | CC(c1ccc(F)c(F)c1)N1CCN(c2c(C#N)c(=O)n(C)c3ccc(C#N)nc23)C[C@H]1C (stereo partly drawn) [Example 956] | – | 4
29 | 0.74 | 25 | C[C@@H]1CN(c2c(C#N)c(=O)n(C)c3ccc(C#N)nc23)CCN1Cc1ccccn1 [Example 990] | – | 20
30 | 0.64 | 1.3 | C[C@@H]1CN(c2c(C#N)c(=O)n(C)c3ccc(C#N)nc23)CCN1C(c1ccc(Cl)cc1)c1ccc(Cl)cn1 (stereo partly drawn) [Example 930] | – | 1.3
31 | 0.63 | 1.7 | Cc1ccc(C(c2ccc(F)cn2)N2CCN(c3c(C#N)c(=O)n(C)c4ccc(C#N)nc34)C[C@H]2C)cc1 (stereo partly drawn) [Example 899] | 0.99 | –
32 | 0.59 | 0.73 | C[C@@H]1CN(c2c(C#N)c(=O)n(C)c3ccc(C#N)nc23)CCN1C(c1ccc(F)cc1)c1ccc(F)cc1F (stereo partly drawn) [Example 946] | – | 0.68
33 | 0.51 | 0.33 | Cc1ccc(C(c2ccc(F)cc2)N2CCN(c3c(C#N)c(=O)n(C)c4ccc(C#N)nc34)C[C@H]2C)cc1 (stereo partly drawn) [Example 888] | – | 1.2
34 | 0.34 | 0.7 | Cc1ccc(C(c2ccc(F)cn2)N2CCN(c3c(C#N)c(=O)n(C)c4ccc(C#N)nc34)C[C@H]2C)cc1 (stereo partly drawn) [Example 898] | 0.48 | –
35 | 0.31 | 0.8 | C[C@@H]1CN(c2c(C#N)c(=O)n(C)c3ccc(C#N)nc23)CCN1Cc1cccc(C(F)(F)F)n1 [Example 991] | – | 11
36 | 0.25 | 2.6 | C[C@@H]1CN(c2c(C#N)c(=O)n(C)c3ccc(C#N)nc23)CCN1C(c1ccc(F)cc1)c1ccc(F)cn1 (stereo partly drawn) [Example 902] | 2.2 | –
37 | 0.22 | 3 | CC(c1ccc(C#N)cc1)N1CCN(c2c(C#N)c(=O)n(C)c3ccc(C#N)nc23)C[C@H]1C (stereo partly drawn) [Example 955] | 20 | –
38 | 0.13 | 6.5 | CC(c1ccc(C#N)cc1)N1CCN(c2c(C#N)c(=O)n(C)c3ccc(C#N)nc23)C[C@H]1C (stereo partly drawn) [Example 954] | – | 20
